Laboratory results from patent publication US20250248999A1, “BAVDEGALUTAMIDE AND COMBINATIONS THEREOF FOR USE IN TREATING PROSTATE CANCER” (Arvinas Operations, Inc., priority 2022, published 2025).
Read-outs that look alike come from different tables or passages of the source.

Key:
clinical = conditions: human, in vivo
[1] = system: human VCaP (Vertebral-Cancer of the Prostate) tumor xenografts; test: 3-stage efficacy study in castrated mice bearing VCaP tumor xenografts; conditions: for change in body weight: Stage I treatment period, FIG. 16; for Tumor volume, Day 0 / Tumor volume, Day 43 (Stage I) / Tumor volume, Day 92 (Stage III): mean ± SEM; for Tumor volume, Day 92 (Stage III): abiraterone 100 mg/kg or Compound (I-g) 10 mg/kg once daily for 19 days
[2] = system: patient-derived xenograft (PDX) model TM00298; conditions: enzalutamide treatment; cited from earlier work
[3] = Phase I dose escalation safety
Excerpt: A traditional 3+3 dose escalation design was implemented. […] Dose increases were dependent upon toxicities.

[4] = system: patient-derived xenograft (PDX) model TM00298; test: Patient-derived xenograft (PDX) model TM00298; format: in vivo, NSG (NOD scid IL2Ry) mice; conditions: Compound (I-g) 10 mg/kg/day PO, enzalutamide 20 mg/kg/day PO
Experimental: The TM00298 PDX was grown in intact (non-castrate) male NSG (NOD scid IL2Ry) mice.

mCRPC tumor = test: RECIST response by CT scan in mCRPC patient; format: in vivo, human; conditions: Patient 20, 140 mg/day, after 4 cycles
[5] = not given; remark: listed apart in the source
CYP3A4 = test: In vitro CYP3A4 induction; conditions: in vitro data
[6] = 28-day toxicology study in rats
[7] = Stage I, Compound (I-g) 3 mg/kg, abiraterone 100 mg/kg or combination, oral gavage once daily
[8] = Stage III, abiraterone-resistant tumors
[9] = Stage III, abiraterone-resistant tumors, abiraterone 100 mg/kg or Compound (I-g) 10 mg/kg once daily, n = 4

With C[C@]12CC[C@H](O)CC1=CC[C@@H]1[C@@H]2CC[C@]2(C)C(c3cccnc3)=CC[C@@H]12 [Abiraterone, (3S,8R,9S,10R,13S,14S)-10,13-dimethyl-17-(pyridin-3-yl)-2,3,4,7,8,9,10,11,12,13,14,15-dodecahydro-1H-cyclopenta[a]phenanthren-3-ol, reference compound] the “reduction in the average abiraterone AUC exposure” value (1000 mg abiraterone given with 420 mg Compound (I-g), preliminary) was 22%, the “drug-drug interaction (DDI)” value (abiraterone with Compound (I-g) vs abiraterone alone) was “no significant DDI was observed” and the AUC (clinical; Abiraterone AUC0-tau, mean) was 417 ng·h/mL. For the same molecule, the Cmax (clinical; Abiraterone Cmax, mean) was 117 ng/mL, the “change in body weight” value [1] was “no significant change in body weight was observed” and the “TGI (%) vs vehicle (Stage I)” value ([1]; Stage I, Compound (I-g) 3 mg/kg, abiraterone 100 mg/kg or combination, oral gavage once daily, 43 days) was 60%. For the same molecule, the “Tumor volume, Day 0” value [1, 7] was 135 ± 10 mm^3, the “Tumor volume, Day 43 (Stage I)” value [1, 7] was 262 ± 39 mm^3 and the “Tumor volume, Day 92 (Stage III)” value [1, 8] was 467 ± 85 mm^3. For the same molecule, the “Tumor volume, Day 0” value [1, 9] was 365 ± 44 mm^3.
In the case of CNC(=O)c1ccc(N2C(=S)N(c3ccc(C#N)c(C(F)(F)F)c3)C(=O)C2(C)C)cc1F [enzalutamide, reference compound], the “PSA reductions, published report (Jin 2017)” value [2] is given as “modest PSA reductions were observed” and the “TGI, published report (Jin 2017)” value [2] is given as “no TGI”.
In the case of N#Cc1ccc(O[C@H]2CC[C@H](NC(=O)c3ccc(N4CCC(CN5CCN(c6cc7c(cc6F)C(=O)N(C6CCC(=O)NC6=O)C7=O)CC5)CC4)nn3)CC2)cc1Cl (some centres unmarked) [Compound (I-g)], the “adverse events at grades 2, 3, or 4” value ([3]; 35 mg/day cohort (n=3)) is reported as “no adverse events at grades 2, 3, or 4 were observed”, the dose limiting toxicity ([3]; 35 mg/day cohort (n=3)) is reported as “no dose limiting toxicity was observed” and the dose limiting toxicity ([3]; 70 mg/day cohort (n=4)) is reported as “no dose limiting toxicity was observed”. For the same molecule, the “grade 2 adverse events” value ([3]; 70 mg/day cohort (n=4)) was “One patient experienced grade 2 adverse events (diarrhea, fatigue, vomiting)”, the “grade 3 adverse events” value ([3]; 70 mg/day cohort (n=4)) was “One patient experienced a grade 3 adverse event (anemia) that was unrelated to the administration of compound (I-g)” and the dose limiting toxicity ([3]; 140 mg/day cohort (n=8)) was “no dose limiting toxicity was observed”. The “patients with grade 2 adverse events” value ([3]; 140 mg/day cohort (n=8)) was 50 % of the patients, the dose-limiting toxicity ([3]; 280 mg/day cohort (n=7)) was “one patient experienced dose-limiting toxicity and renal failure” and the “patients with grade 2 or less adverse events” value ([3]; 280 mg/day cohort (n=7)) was 5 patients. For the same molecule, the “reduction of plasma PSA” value ([4]; vs vehicle) was 93%, the TGI ([4]; after 20 days, intact male NSG mice) was 100% and the “tumor response on CT scan” value (mCRPC tumor) was “RECIST response”. The gastrointestinal alterations ([5]; dogs, 3, 10, 30 mg/kg oral once daily, 28 days) was “Gastrointestinal alterations were observed at all dose levels (including vehicle alone)”, the prostate weights ([5]; male dogs) was “decreased prostate weights” and the AUC (clinical) was 9120 ng·h/mL. It also gave an AUC(0-t) (clinical) of 3030 ng·h/mL, a Cmax (clinical) of 451 ng/mL and a Tmax (clinical) of 6 h. For the same molecule, the CYP3A4 induction (CYP3A4) was “induces CYP3A4”, the “body weight and food consumption” value ([6]; 80 mg/kg female rat cohort) was “lost body weight and consumed less food” and the “reversibility of findings (liver hypertrophy, femur physis thickening)” value ([6]; male high-dose rats, 14-day recovery) was “fully reversible”. The prostate weights ([6]; male rats) was “decreased prostate weights”, the tolerability ([6]; rats, oral once daily 28 days, males 20, 60, 120 mg/kg, females 20, 40, 120 mg/kg) was “well tolerated at all doses, with the exception of the 80 mg/kg female cohort” and the “change in body weight” value [1] was “no significant change in body weight was observed”. For the same molecule, the “Tumor volume, Day 0” value [1, 7] was 147 ± 8{grave over ( )} mm^3, the “Tumor volume, Day 43 (Stage I)” value [1, 7] was 231 ± 26 mm^3 and the “TGI (%) vs Abiraterone (Stage III)” value ([1]; Stage III, abiraterone-resistant tumors, Compound (I-g) 10 mg/kg once daily for 19 days) was “growth inhibition was observed”. For the same molecule, the “Tumor volume, Day 92 (Stage III)” value [1, 8] was 305 ± 23 mm^3 and the “Tumor volume, Day 0” value [1, 9] was 330 ± 15 mm^3.
